According to ChEMBL document CHEMBL3132804, “Synthesis and biological evaluation of novel quinoxalinone-based HIV-1 reverse transcriptase inhibitors” (Medchemcomm, 2014):

What was measured:
[1] = system: Human immunodeficiency virus 1; assay: Antiviral activity against wild type HIV1 VSVG infected in 293ET cells assessed as inhibition of viral replication by luciferase reporter gene assay; assay type: functional, organism-based
[2] = system: Human immunodeficiency virus 1; assay: Selectivity ratio of IC50 for HIV1 VSVG harboring reverse transcriptase Y181C mutant to IC50 for wild type HIV1 VSVG; assay type: functional
[3] = system: Human immunodeficiency virus 1; assay: Antiviral activity against HIV1 VSVG harboring reverse transcriptase K103N mutant infected in 293ET cells assessed as inhibition of viral replication by luciferase reporter gene assay; assay type: functional, organism-based
[4] = system: Human immunodeficiency virus 1; assay: Selectivity ratio of IC50 for HIV1 VSVG harboring reverse transcriptase K103N mutant to IC50 for wild type HIV1 VSVG; assay type: functional
[5] = system: Human immunodeficiency virus 1; assay: Antiviral activity against HIV1 VSVG harboring reverse transcriptase Y181C mutant infected in 293ET cellsassessed as inhibition of viral replication by luciferase reporter gene assay; assay type: functional, organism-based
[6] = Human immunodeficiency virus 1, VSVG, 293ET, read-out: IC50

| Structure (SMILES) | IC50 [1, 6] [µM] | Ratio IC50 [2] | IC50 [3] [µM] | Ratio IC50 [4] | IC50 [5] [µM] | IC50 ([1]; 293et) |
| --- | --- | --- | --- | --- | --- | --- |
| COC(=O)c1sc(-c2cccs2)cc1S(=O)(=O)N1c2cc(Cl)ccc2NC(=O)C1C (stereo unspecified) | 6.53 | – | – | – | – | – |
| COC(=O)c1sc(-c2ccco2)cc1S(=O)(=O)N1c2cc(Cl)ccc2NC(=O)C1C (stereo unspecified) | 1.97 | >5 | > 10 | >5 | > 10 | – |
| CC1C(=O)Nc2ccc(Cl)cc2N1S(=O)(=O)c1ccsc1C(=O)O (stereo unspecified) | – | – | – | – | – | Not Active |
| CC1C(=O)Nc2ccc(Cl)cc2N1S(=O)(=O)c1cc(Cl)sc1C(=O)O (stereo unspecified) | – | – | – | – | – | Not Active |
| CC(C)OC(=O)c1sccc1S(=O)(=O)N1c2cc(Cl)ccc2NC(=O)C1C (stereo unspecified) | 1.09 | >9 | > 10 | >9 | > 10 | – |
| CC(C)=CCOC(=O)c1sccc1S(=O)(=O)N1c2cc(Cl)ccc2NC(=O)C1C (stereo unspecified) | 0.77 | >13 | > 10 | >13 | > 10 | – |
| CC(C)OC(=O)c1sc(Cl)cc1S(=O)(=O)N1c2cc(Cl)ccc2NC(=O)C1C (stereo unspecified) | 5.55 | – | – | – | – | – |
| CON(C)C(=O)c1sccc1S(=O)(=O)N1c2cc(Cl)ccc2NC(=O)C1C (stereo unspecified) | – | – | – | – | – | Not Active |
| CC(C)NC(=O)c1sccc1S(=O)(=O)N1c2cc(Cl)ccc2NC(=O)C1C (stereo unspecified) | – | – | – | – | – | Not Active |
| CC1C(=O)Nc2ccc(Cl)cc2N1S(=O)(=O)c1ccsc1CO (stereo unspecified) | – | – | – | – | – | Not Active |
| CC1C(=O)Nc2ccc(Cl)cc2N1S(=O)(=O)c1cc(Cl)sc1CO (stereo unspecified) | – | – | – | – | – | Not Active |
| CC1C(=O)Nc2ccc(Cl)cc2N1S(=O)(=O)c1ccsc1C=O (stereo unspecified) | – | – | – | – | – | Not Active |
| CC1C(=O)Nc2ccc(Cl)cc2N1S(=O)(=O)c1cc(Cl)sc1C=O (stereo unspecified) | – | – | – | – | – | Not Active |
| CC1C(=O)Nc2ccc(Cl)cc2N1S(=O)(=O)c1ccsc1/C=N\c1nccs1 (stereo unspecified) | – | – | – | – | – | Not Active |
| CC1C(=O)Nc2ccc(Cl)cc2N1S(=O)(=O)c1cc(Cl)sc1/C=N\c1nccs1 (stereo unspecified) | – | – | – | – | – | Not Active |
| CC1C(=O)Nc2ccc(Cl)cc2N1S(=O)(=O)c1cc(Cl)sc1-c1cnco1 (stereo unspecified) | 4.44 | – | – | – | – | – |
| CC1C(=O)Nc2ccc(Cl)cc2N1S(=O)(=O)c1ccsc1CNc1nccs1 (stereo unspecified) | – | – | – | – | – | Not Active |
| CC1C(=O)Nc2ccc(Cl)cc2N1S(=O)(=O)c1cc(Cl)sc1CNc1nccs1 (stereo unspecified) | – | – | – | – | – | Not Active |
| COC(=O)c1sc(Cl)cc1S(=O)(=O)N1c2cc(Cl)ccc2NC(=O)C1C (stereo unspecified) | 0.07 | >143 | 7.94 | 113 | > 10 | – |
| COC(=O)c1sc(Br)cc1S(=O)(=O)N1c2cc(Cl)ccc2NC(=O)C1C (stereo unspecified) | 0.13 | >77 | 6.39 | 49 | > 10 | – |
| COC(=O)c1sc(I)cc1S(=O)(=O)N1c2cc(Cl)ccc2NC(=O)C1C (stereo unspecified) | 0.075 | >133 | 6.68 | 89 | > 10 | – |
| COC(=O)c1sc(-c2ccccc2)cc1S(=O)(=O)N1c2cc(Cl)ccc2NC(=O)C1C (stereo unspecified) | 9.05 | – | – | – | – | – |
| COC(=O)c1sc(-c2cccc(OC)c2)cc1S(=O)(=O)N1c2cc(Cl)ccc2NC(=O)C1C (stereo unspecified) | 9.68 | – | – | – | – | – |
| COC(=O)c1sccc1S(=O)(=O)N1c2cc(Cl)ccc2NC(=O)C1C (stereo unspecified) | – | >50 | 2.6 | 13 | > 10 | – |
| Cc1ccnc2c1NC(=O)c1cccnc1N2C1CC1 [NEVIRAPINE] | 0.04 | >250 | 1.29 | 32 | > 10 | – |
